Data on 1 compound can be found in patent publication US20180369244A1, “BTK Inhibitors to Treat Solid Tumors Through Modulation of the Tumor Microenvironment” (Acerta Pharma B.V., priority 2014, published 2018).

Each structure is given as a SMILES string.

One series deals with primary CLL cells. In words: Rituximab ADCC chromium release assay. In kind it is cell-based, human. The note with it: 1 μM; primary CLL samples. Here is the method: Cell culture conditions were as follows. Cell lines Raji and DHL-4 were maintained in […] supplemented with fetal bovine serum, L-glutamine, 2-mercaptoethanol and penicillin-streptomycin at 37° C. in a humidified incubator. The HER18 cells were maintained in DEM supplemented with fetal bovine serum, penicillin-streptomycin and. Prior to assay, HER18 cells were harvested using trypsin-EDTA, washed with phosphate-buffered saline (PBS) containing 5% serum and viable cells were counted. For culture of primary target cells, peripheral blood from CLL patients was subject to density centrifugation to obtain peripheral blood mononuclear cells (PBMC). Cell preparations were washed and then subject to positive selection of CD5+CD19^+ CLL cells using magnetic beads (MACS, Miltenyi Biotech). Cell preparations were used fresh after selection. NK cells from CLL patients and healthy volunteers were enriched from peripheral blood collected in sodium citrate anti-coagulant tubes and then subject to density centrifugation. Removal of non NK cells was performed using negative selection by MACS separation. […]
ADCC assays were performed as follows. […] The effect of NK cell natural cytotoxicity was assessed in wells containing no rituximab. […] Supernatants were harvested and ^51Cr release was measured by liquid scintillation counting. […]

A further series has as its system CD8+ T cells. The series is described as follows: CD8+ T cell viability. In kind it is cell-based. Conditions: 4 days culture. As for the experimental part: Total T cells were plated on anti-TCR and anti-CD28 coated wells in the presence of both BTK inhibitors. Neutral culture conditions were used that will not polarize T cells to a helper lineage. The cells are grown for 4 days and are then stained with anti-CD4, anti-CD8 and LIVE/DEAD reagent to determine if the drugs have selective effects on either the CD4^+ or CD8^+ cells. Statistical significance was calculated using the Mann Whitney T-test. […]

Consider `CC#CC(=O)N1CCC[C@H]1c1nc(-c2ccc(C(=O)Nc3ccccn3)cc2)c2c(N)nccn12` [Formula (II), (S)-4-(8-amino-3-(1-(but-2-ynoyl)pyrrolidin-2-yl)imidazo[1,5-a]pyrazin-1-yl)-N-(pyridin-2-yl)benzamide], for which the “ex vivo NK cell activity against autologous tumor cells” value in the series with primary CLL cells is listed as “not inhibited”. Also, the “CD8+ T cell viability” value in the series on CD8+ T cells is listed as “not observed”.
